Data from patent publication US6750348B1, “Chemokine receptor binding heterocyclic compounds” (AnorMED, Inc., priority 1999, dated 2004).
Like-named read-outs stand apart in the source and are kept apart here.

Tests used:
Assay type in all cases: cell-based
HIV-1 NL4.3 or IIIB = test: Inhibition of HIV-1 (NL4.3 or IIIB) replication in MT-4 cells (MTT); conditions: Human immunodeficiency virus 1, IIIB
Method: Compounds were tested for their ability to inhibit HIV-1 replication in MT-4 cells or PBMC's (peripheral blood mononucleocytes) using published procedures (for example, see: Labrosse et al. J. Virol. 1998, 6381-6388; Simmons et al. J. Virol. 1998, 8453-8457; Donzella et al. Nature Medicine 1998, 72-77; Schols et al. J. Exp. Med. 1997, 1383-1388; De Clercq et al. Antiviral Res. 1997, 147-156; and Bridger et al. U.S. patent application Ser. No. 09/111,895). In addition to the above references, experimental methods for performing anti-viral assays can also be found in: Bridger et al. J. Med. Chem. 1995, 38, 366-378; Bridger et al. J. Med. Chem. 1996, 39, 109-119; Bridger et al. U.S. Pat. No. 5,698,546; Bridger et al. U.S. Pat. No. 5,583,131; Bridger et al. U.S. Pat. No. 5,817,807; De Clercq et al. Antimicrob. Agents and Chemother. 1994, 38, 668-674.
1. The HIV-1 strains NL4.3 and IIIB are T-tropic strains that exclusively use CXCR4 as the co-receptor for entry into cells. MT-4 Cells express CXCR4 but not CCR5.
Inhibition of HIV-1 NL4.3 (or IIIB) replication assays were performed as previously described (Bridger et al. J. Med. Chem. 1999, 42, 3971-3981; De Clercq et al. Proc. Natl. Acad. Sci, 1992, 89, 5286-5290; De Clercq et al. Antimicrob. Agents Chemother. 1994, 38, 668-674; Bridger et al. J. Med. Chem. 1995, 38, 366-378). Anti-HIV activity and cytotoxicity measurements were carried out in parallel. They were based on the viability of MT-4 cells that had been infected with HIV in the presence of various concentrations of the test compounds. After the MT-4 cells were allowed to proliferate for 5 days, the number of viable cells was quantified by a tetrazolium-based calorimetric 3-(4,5-dimethylthiazol-2-yl)-2,5-diphenyltetrazolium bromide (MTT) procedure in 96-well microtrays. In all of these assays, viral input (viral multiplicity of infection, MOI) was 0.01, or 100 times the 50% cell culture infective dose (CCID50). The EC50 was defined as the concentration required to protect 50% of the virus-infected cells against viral cytopathicity.

[1] = system: RANTES induced Ca flux in U87.CCR5 cells; test: Inhibition of RANTES induced Ca flux in U87.CCR5 cells (FLIPR); conditions: read-out: inhibited RANTES induced Ca flux; for inhibition at 20 µg/mL: U-87-CCR5, at 20 μg/mL; for inhibition at 20 µM: U-87-CCR5, at 20 μM
Method: (§1) Loading dye: Fluo-3, AM (Molecular Probes F-1241) is dissolved in anhydrous DMSO and stored frozen in aliquots. To increase the solubility of the dye in the loading medium, 10% (w/v) pluronic acid (Molecular Probes F-127) is added to the Fluo-3 stock solution immediately before use.
(§2) HBSS+20 mM Hepes buffer+0.2% BSA, pH 7.4. HBSS 10× [(w/o phenol red and sodium bicarbonate (Gibco 14 065-049)]; Hepes buffer 1M (Gibco 15 630-056), BSA (Sigma A3675). The flux buffer is vacuum-filtered and stored refrigerated for a maximum of 5 days. Before use in the experiment, the buffer is warmed at 37° C. in a waterbath.
(§3) The test compounds were diluted in flux buffer and added to 4 wells of a black microplate (4 parallel measurements per compound).
(§4) The chemokines are diluted in flux buffer to concentrations that are 4-fold higher than the desired concentrations required for stimulation of the cells (i.e. 2.5 nM for SDF-1α and 0.6 nM for RANTES). The chemokines were added to untreated 96-well Sero well compound plates (International Medical, Sterilin code 611F96). In the negative control well's (baseline monitoring), flux buffer is added instead of chemokine. As a positive control to check for dye loading efficiency, 20 μM digitonin (final concentration) was also included. The agonist plate was incubated in the FLIPR (37° C.) for 15-30 min.
(§5) The FLIPR settings (camera exposure time and laser power) are adjusted to obtain initial fluorescence values between 8,000 and 10,000 units. After monitoring a 20 second-baseline, the agonist (chemokine) (50 μL) is added by automatic pipettor with black pipette tips. Fluorescence is measured simultaneously in all wells of the microplate every 2 seconds (first 2 min) and thereafter every 6 seconds (additional 2 min). The average ca-flux measured in each set of 4 identical wells (one test compound) was calculated by the FLIPR software.
U87.CCR5 cells were seeded into the black microplates (Costar 3603) on the day before the experiment. The culture medium was removed from the cells and 100 μL of loading medium (DMEM+10% FBS+4 μM Fluo-3, AM) was added to each well and the plate was incubate at 37° C. for 45 min. The loading medium was then removed an the cells were washed twice with flux buffer using the CELL WASH microplate washer (Labsystems) followed by incubation in flux buffer for 10 min. at room temperature (the washing procedure was repeated twice). Finally, the wash buffer was removed from the microplate wells and 150 μL of the test compound, diluted in flux buffer to the desired concentration. The microplate was then incubated in the FLIPR drawer for 10 min. prior to testing. Measurements were performed as described above.
The compounds of the current invention were tested for inhibition of RANTES induced Ca flux in U87.CCR5 cells.

[2] = system: SDF-1α induced Ca flux in SUP-T1 cells; test: Inhibition of SDF-1α induced Ca flux in SUP-T1 cells (FLIPR); conditions: Homo sapiens, read-out: inhibited SDF-1α induced Ca flux; for inhibition at 20 µg/mL: at 20 μg/mL
Method: as §1, §2, §3, §4
SUP-T1 cells were centrifuged at room temperature (RT) and re-suspended in loading medium (RPMI-1640 containing 2% FBS and 4 μM Fluo-3, AM). The cells were incubate at room temperature for 45 min. then washed twice in flux buffer then incubated in flux buffer at room temperature for 10 min. The cells were centrifuged and re-suspended in flux buffer at a density of 3×10^6 cells per mL. […] The microplate is then gently centrifuged at room temperature. Homogeneous spreading of the cells on the bottom of the microplate wells was then confirmed with a microscope and the microplate was incubated in the FLIPR (37° C.) for 10 min. prior to testing.
as §5
The compounds of the current invention were tested for inhibition of SDF-1α induced Ca flux in SUP-T1 cells using the method described above.

[3] = MT4, read-out: EC50, inhibition of HIV-1 NL4.3 or IIIB replication

| SMILES | EC50 (HIV-1 NL4.3 or IIIB; [3]) | inhibition at 20 µg/mL [2] | other results |
| --- | --- | --- | --- |
| N[C@@H]1CCCC[C@H]1N(Cc1ccc(CNCc2ccccn2)cc1)C1CCCc2cccnc21 (relative stereo) [Example 68, N-(2-pyridinylmethyl)-N′-(trans-2-aminocyclohexyl)-N′-(5,6,7,8-tetrahydro-8-quinolinyl)-1,4-benzenedimethanamine] | < 20 µg/mL |  | inhibition at 20 µg/mL [1]: > 20% |
| c1ccc(CNCc2ccc(CNc3cccc4cccnc34)cc2)nc1 [Example 6, N-(2-pyridinylmethyl)-N′-(8-quinolinyl)-1,4-benzenedimethanamine] | < 20 µg/mL |  | inhibition at 20 µg/mL [1]: > 20% |
| c1ccc(CNCc2ccc(CN(Cc3ccc4ccccc4n3)C3CCCc4cccnc43)cc2)nc1 (stereo not shown) [Example 18, N-(2-pyridinylmethyl)-N′-(2-quinolinylmethyl)-N′-(5,6,7,8-tetrahydro-8-quinolinyl)-1,4-benzenedimethanamine] | < 20 µg/mL | > 20% |  |
| c1ccc(CNCc2ccc(CN(Cc3cc[nH]n3)C3CCCc4cccnc43)cc2)nc1 (stereo not shown) [Example 25, N-(2-pyridinylmethyl)-N′-[3-pyrazolylmethyl]-N′-(5,6,7,8-tetrahydro-8-quinolinyl)-1,4-benzenedimethanamine] |  |  | inhibition at 20 µg/mL [1]: > 20% |
| c1ccc(CNCc2ccc(CN(Cc3nccs3)C3CCCc4cccnc43)cc2)nc1 (stereo not shown) [Example 28, N-(2-pyridinylmethyl)-N′-[2-thiazolylmethyl]-N′-(5,6,7,8-tetrahydro-8-quinolinyl)-1,4-benzenedimethanamine] | < 20 µg/mL | > 20% |  |
| COc1ccc2c(c1)CC(NCc1ccc(CNCc3ccccn3)cc1)CC2 (stereo not shown) [Example 35, N-(2-pyridinylmethyl)-N′-(7-methoxy-1,2,3,4-tetrahydro-2-naphthalenyl)-1,4-benzenedimethanamine] | < 20 µg/mL | > 20% |  |
| Oc1cccc2c1CC(NCc1ccc(CNCc3ccccn3)cc1)CC2 (stereo not shown) [Example 41, N-(2-pyridinylmethyl)-N′-(8-hydroxy-1,2,3,4-tetrahydro-2-naphthalenyl)-1,4-benzenedimethanamine] | < 20 µg/mL | > 20% |  |
| c1ccc(CNCc2ccc(CNC3CCc4cccnc4C3)cc2)nc1 (stereo not shown) [Example 45, N-(2-pyridinylmethyl)-N′-(5,6,7,8-tetrahydro-7-quinolinyl)-1,4-benzenedimethanamine] | < 20 µg/mL | > 20% |  |
| CC(C)CNCCN(Cc1ccc(CNCc2ccccn2)cc1)C1CCCc2cccnc21 (stereo not shown) [Example 48, N-(2-pyridinylmethyl)-N′-[2-(isobutylamino)ethyl]-N′-(5,6,7,8-tetrahydro-8-quinolinyl)-1,4-benzenedimethanamine] | < 20 µg/mL | > 20% |  |
| N=C(N)NCCN(Cc1ccc(CNCc2ccccn2)cc1)C1CCCc2cccnc21 (stereo not shown) [Example 51, N-(2-pyridinylmethyl)-N′-(2-guanidinoethyl)-N′-(5,6,7,8-tetrahydro-8-quinolinyl)-1,4-benzenedimethanamine] | < 20 µg/mL | > 20% |  |
| O=C(NCCN(Cc1ccc(CNCc2ccccn2)cc1)C1CCCc2cccnc21)Nc1ccccc1 (stereo not shown) [Example 55, N-(2-pyridinylmethyl)-N′-[2-(phenylureido)ethyl]-N′-(5,6,7,8-tetrahydro-8-quinolinyl)-1,4-benzenedimethanamine] | < 20 µg/mL | > 20% |  |
| c1ccc(CNCc2ccc(CN(Cc3ccccn3)C3CCCc4cccnc43)cc2)nc1 (stereo not shown) [Example 84, N,N′-bis(2-pyridinylmethyl)-N′-(5,6,7,8-tetrahydro-8-quinolinyl)-1,4-benzenedimethanamine] | < 20 µg/mL | > 20% |  |
| c1ccc(CNCc2ccc(CN(Cc3ccccn3)C3CCCCc4cccnc43)cc2)nc1 (stereo not shown) [Example 85, N,N′-bis(2-pyridinylmethyl)-N′-(6,7,8,9-tetrahydro-5H-cyclohepta[b]pyridin-9-yl)-1,4-benzenedimethanamine] | < 20 µg/mL | > 20% |  |
| c1ccc(CNCc2ccc(CN(Cc3ccccn3)C3CCc4cccnc43)cc2)nc1 (stereo not shown) [Example 86, N,N′-bis(2-pyridinylmethyl)-N′-(6,7-dihydro-5H-cyclopenta[b]pyridin-7-yl)-1,4-benzenedimethanamine] | < 20 µg/mL | > 20% |  |
| c1ccc(CNCc2ccc(CN(Cc3ccccn3)CC3CCc4cccnc43)cc2)nc1 (stereo not shown) [Example 89, N,N′-bis(2-pyridinylmethyl)-N′[(6,7-dihydro-5H-cyclopenta[b]pyridin-7-yl)methyl]-1,4-benzenedimethanamine] | < 20 µg/mL | > 20% |  |
| c1ccc(CCN(Cc2cccc(CNCc3ccccn3)c2)Cc2ccccn2)cc1 [Example 109, N-[-(phenyl)ethyl]-N,N′-bis(2-pyridinylmethyl)-1,3-benzenedimethanamine] |  |  | inhibition at 20 µM [1]: > 20% |
| c1ccc(CNCc2cccc(CN(Cc3ccccn3)Cn3ccnc3)c2)nc1 [Example 118, N-[1H-imidazol-1-ylmethyl]-N,N′-bis(2-pyridinylmethyl)-1,3-benzenedimethanamine] |  |  | inhibition at 20 µM [1]: > 20% |
| Cc1nc[nH]c1CN(Cc1ccc(CNCc2ccccn2)cc1)Cc1ccccn1 [Example 166, N-[(4-methyl)-1H-imidazol-5-ylmethyl]-N,N′-bis(2-pyridinylmethyl)-1,4-benzenedimethanamine] |  |  | EC50 (HIV-1 NL4.3 or IIIB; MT4, read-out: EC50, inhibition of HIV-1 NLA.3 or IIIB replication): < 20 µM; inhibition at 20 µM ([2]; at 20 μM): > 20% |
| c1ccc(CN2CCC(N(CCc3ccccn3)Cc3cccc(CNCc4ccccn4)c3)C2)cc1 (stereo not shown) [Example 179, N-[1-(benzyl)-3-pyrrolidinyl]-N-[2-(2-pyridinyl)ethyl]-N′-(2-pyridinylmethyl)-1,3-benzenedimethanamine] |  |  | inhibition at 20 µM [1]: > 20% |
